Tests used:
[1] = test system: endosomal compartments of Drosophila hemocytes; test: Chloride concentration in endosomal compartments of hemocytes under chemical perturbation, measured with Clensor; type: cell-based; details: +NPPB
Method: Hemocytes are washed with 1×M1 buffer (150 mM NaCl, […], 1 mM CaCl2, 1 mM MgCl2, 20 mM HEPES pH 7.2) prior to labeling. Hemocytes are incubated with 2 μM of Clensor sample (diluted in 1×M1 buffer) for 5-10 minutes (depending on the signal again, *for measurements in early endosomes 5 min pulse is given*) and then washed 3-4 times with 1×M1 and then chased for an additional 5 to 120 minutes. For a chase longer than 5 minutes, 1×M1 is replaced by complete insect medium and transferred to a 20° C. incubator. For 5 minute chases, cells are washed and then imaged in 1×M1.
For Chloride ion […] measurement experiments, after pulsing with Clensor, cells are chased for (i) 5 min (Early Endosome), (ii) 60 min (Late endosome) and (iii) 120 min (Lysosome). Each set of cells are then imaged live, acquiring two images for each set of cells. (i) Ex=480/20, Dichroic=500-600 BP, Em=535/40 and (ii) Ex=640/30, Dichroic=665 LP, Em=690/50.
Hemocytes are pulsed with 2 μM of Clensor sample for 30 minutes (for development of a signal), washed 3-4 times with 1×M1 followed by a 5 minute chase in same medium. Cells are then fixed with 200 μL 2.5% paraformaldehyde (PFA) for 20 minutes at room temperature, quickly washed 3 times and retained in 1×M1. To obtain intracellular Chloride ion (Cl^−) calibration curve, perfusate and endosomal Chloride ion (Cl^−) concentration are equalized by incubating the previously fixed cells in 120 mM KCl/KNO3, 20 mM NaCl/NaNO3, 1 mM CaCl2/Ca(NO3)2, 1 mM MgCl2/Mg(NO3)2, and 10 mM HEPES at pH 7.2, with Chloride ion (Cl^−) concentration from about 0-80 mM (NO3^− replacing Cl^−) for about 3 hours at room temperature. Chloride clamping solution contains Nigericin (10 μM)+Valinomycin (10 μM)+CCCP (5 μM)+Monensin (10 μM)+Bafilomycin (200 nM). The cells are imaged in the same buffer.
Here, the hemocytes are treated with a non-specific chloride ion channel blocker NPPB (5-nitro-2-(3-phenylpropylamino)-benzoate).

Drosophila hemocytes = test: Bafilomycin perturbation of endosomal chloride concentration and pH in hemocytes; type: cell-based
Method: Bafilomycin is used to perturb endosomal Chloride ion concentration [Cl^−] and these perturbations are followed by changes in R/G ratios in Clensor labeled endosomes of Drosophila hemocytes. pH is simultaneously measured in this system by pulsing with about 2 mg/mL 10 kDa FITC-dextran (FD10) for about 5 minutes at room temperature and chased for about 120 minutes at about 20° C. The cells are then incubated with 1×M1 buffer containing about 200 nM Bafilomycin followed by a 120 minute chase at about 20° C. in the same buffer.
Intracellular pH is measured by the Dual Excitation Method. λEx480/λEx 430 emission ratios show about 2.1 fold decrease in pH as a function of time till about 120 minutes post endocytosis, indicating the expected decrease in pH in hemocytes (FIG. 16a, black). Upon Bafilomycin treatment, endosomal pH is reversed as given by gradual increase (˜2.2 fold) in λEx480/λEx 430 emission ratios (FIG. 16a, black). […]
FIG. 16 depicts the integrity of Clensor during endosomal maturation. […] Chloride concentrations and pH values are monitored after Bafilomycin treatment. […] Endosomal pH is monitored by ratios of the intensity at 530 nm when the FITC is excited at 480 nm and 430 nm (λex480/λex 430). […]

Row | Compound | Mean [Cl−] ± s.e.m, EE ([1]; early endosomes, 5 min) [mM] | Mean [Cl−] ± s.e.m, LE ([1]; late endosomes, 60 min) [mM] | Mean [Cl−] ± s.e.m, LY ([1]; lysosomes, 120 min) [mM] | increase in λEx480/λEx 430 emission ratios (reversal of endosomal pH) (Drosophila hemocytes; 200 nM Bafilomycin, FITC-dextran labeled hemocytes, after 120 min chase) [fold] | change of R/G ratios of Clensor labeled endosomes (endosomal [Cl−]) (Drosophila hemocytes; after 200 nM Bafilomycin treatment)
1 | O=C(O)c1cc([N+](=O)[O-])ccc1NCCCc1ccccc1 [NPPB, 5-nitro-2-(3-phenylpropylamino)-benzoate] | 9.3 ± 1.5 | 33.8 ± 2.5 | 86.5 ± 3.5 |  | 
2 | Bafilomycin |  |  |  | ~2.2 | R/G ratios gradually decrease
